Test results taken from patent US10959432B2, “Microbiocidal oxadiazole derivatives” (Syngenta Participations AG, priority 2016, dated 2021).
Several values for one entry are separate records, joined by “and”; a condition that tells them apart may be missing. Equal values may be shown once.

Experiments:
[1] = tested on: Uromyces viciae-fabae; experiment: Fungicidal activity against Uromyces viciae-fabae / field bean / leaf disc preventative (faba-bean rust); assay type: in vivo; settings: foliar, 288 h, 100 ppm in the applied formulation, field bean leaf discs, preventative (inoculated two hours after application), assessed 12 days after application, read-out: disease control compared to untreated control leaf discs
Outline: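 Field bean leaf discs on water agar treated with 10 μl compound in acetone plus spreader, then spray-inoculated on the lower surface with Uromyces viciae-fabae spores 2 h later. Incubation at 22 °C, 18 h day, 70% RH; percent disease control versus untreated scored 12 days after application, compounds at 100 ppm.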

[2] = tested on: Puccinia recondita f. sp. tritici; experiment: Fungicidal activity against Puccinia recondita f. sp. tritici / wheat / leaf disc curative (brown rust); assay type: in vivo; settings: foliar, 200 ppm in the applied formulation, wheat leaf segments cv. Kanzler, curative (applied 1 day after inoculation), assessed 6 to 8 days after application, read-out: disease control compared to untreated control leaf disks
Outline: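 Wheat cv. Kanzler leaf segments on agar, spore-inoculated, held dark at 19° C./75% RH; formulated compound in water sprayed 1 day post-inoculation (curative). Incubated 19° C., 75% RH, 12 h light/12 h dark; percent disease control vs untreated scored 6 to 8 days after application.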

[3] = tested on: Glomerella laqenarium (Colletotrichum lagenarium); experiment: Fungicidal activity against Glomerella lagenarium (Colletotrichum lagenarium) liquid culture / cucumber / preventative (anthracnose); assay type: cell-based; settings: Colletotrichum orbiculare; 20 ppm in the applied formulation; liquid culture in PDB, 24° C., 3 to 4 days after application; read-out: disease control compared to untreated control (inhibition of growth measured photometrically)
Outline: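 Cryostored conidia mixed into potato dextrose broth and added to test compound (from DMSO solution) in microtiter plates. Incubated at 24 °C; growth inhibition read photometrically 3 to 4 days after application, as percent activity versus untreated check.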

[4] = tested on: Puccinia recondita f. sp. tritici; experiment: Fungicidal activity against Puccinia recondita f. sp. tritici / wheat / leaf disc preventative (brown rust); assay type: in vivo; settings: foliar, 200 ppm in the applied formulation, wheat leaf segments cv. Kanzler, preventative (inoculated 1 day after application), assessed 7 to 9 days after application, read-out: disease control compared to untreated control leaf disks
Outline: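 Wheat cv. Kanzler leaf segments on agar sprayed with formulated compound diluted in water, inoculated with P. recondita spores 1 day later. Incubated at 19C, 75% rh, 12 h light/12 h dark; scored 7 to 9 days after application as percent disease control versus untreated segments. Test rate 200 ppm.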

[5] = tested on: Phakopsora pachyrhizi; experiment: Fungicidal activity against Phakopsora pachyrhizi / soybean / leaf disc preventative (Asian soybean rust); assay type: in vivo; settings: foliar, 200 ppm in the applied formulation, soybean leaf disks, preventative (inoculated one day after application), assessed 12 to 14 days after application, read-out: disease control compared to untreated control leaf disks
Outline: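 Soybean leaf discs on water agar sprayed with formulated compound diluted in water; spore suspension sprayed on lower leaf surface one day later. Incubated 24-36 h dark at 20° C, 75% rh, then 20° C, 12 h light/day, 75% rh. Percent disease control versus untreated scored 12 to 14 days after application.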

| SMILES | pest or weed control at 100 ppm [1] | pest or weed control at 200 ppm [2] | inhibition at 20 ppm [3] | melting point | pest or weed control at 200 ppm [4] | pest or weed control at 200 ppm [5] |
| --- | --- | --- | --- | --- | --- | --- |
| O=C(NCC1CCOCC1)c1ccc(-c2noc(C(F)(F)F)n2)cc1F [Compound 1b.18, 2-fluoro-N-(tetrahydropyran-4-ylmethyl)-4-[5-(trifluoromethyl)-1,2,4-oxadiazol-3-yl]benzamide] | ≥ 80% | ≥ 80% | ≥ 80% | 134 to 136 °C and 134 to 135.4 °C | ≥ 80% | ≥ 80% |
| CC1CC(NC(=O)c2ccc(-c3noc(C(F)(F)F)n3)cc2F)=NO1 (stereo not drawn) [Compound 1b.15, 2-fluoro-N-(5-methyl-4,5-dihydroisoxazol-3-yl)-4-[5-(trifluoromethyl)-1,2,4-oxadiazol-3-yl]benzamide] | ≥ 80% | ≥ 80% | ≥ 80% | 152.5 to 155.9 °C | ≥ 80% | ≥ 80% |
| Cc1ccccc1CNC(=O)c1ccc(-c2noc(C(F)(F)F)n2)cc1 [Compound 4a.4, N-(o-tolylmethyl)-4-[5-(trifluoromethyl)-1,2,4-oxadiazol-3-yl]benzamide] | ≥ 80% | ≥ 80% | ≥ 80% | 135 to 141 °C | ≥ 80% | ≥ 80% |
| CN(C(=O)c1ccc(-c2noc(C(F)(F)F)n2)cc1)c1ncn[nH]1 [Compound 5a.5, N-methyl-N-(1H-1,2,4-triazol-5-yl)-4-[5-(trifluoromethyl)-1,2,4-oxadiazol-3-yl]benzamide] | ≥ 80% | ≥ 80% | ≥ 80% | 125 to 128 °C | ≥ 80% | ≥ 80% |
| CC(NC(=O)c1ccc(-c2noc(C(F)(F)F)n2)cc1)c1ccccc1 (stereo not drawn) [Compound 4a.5, N-(1-phenylethyl)-4-[5-(trifluoromethyl)-1,2,4-oxadiazol-3-yl]benzamide] | ≥ 80% | ≥ 80% | ≥ 80% | 144 to 148 °C | ≥ 80% | ≥ 80% |
| CCNC(=O)c1ccc(-c2noc(C(F)(F)F)n2)cc1F [Compound 3b.2, N-ethyl-2-fluoro-4-[5-(trifluoromethyl)-1,2,4-oxadiazol-3-yl]benzamide] | ≥ 80% | ≥ 80% | ≥ 80% | 125 to 127 °C | ≥ 80% | ≥ 80% |
| CC(C)CNC(=O)c1ccc(-c2noc(C(F)(F)F)n2)cc1F [Compound 3b.5, 2-fluoro-N-isobutyl-4-[5-(trifluoromethyl)-1,2,4-oxadiazol-3-yl]benzamide] | ≥ 80% | ≥ 80% | ≥ 80% | 126.6 to 128.3 °C | ≥ 80% | ≥ 80% |
| N#CC(NC(=O)c1ccc(-c2noc(C(F)(F)F)n2)cc1F)c1cccs1 (stereo not drawn) [Compound 5b.20, N-[cyano(2-thienyl)methyl]-2-fluoro-4-[5-(trifluoromethyl)-1,2,4-oxadiazol-3-yl]benzamide] | ≥ 80% | ≥ 80% | ≥ 80% | 138.1 to 139.2 °C | ≥ 80% | ≥ 80% |
| O=C(NCC1CC1)c1ccc(-c2noc(C(F)(F)F)n2)cc1F [Compound 2b.1, N-(cyclopropylmethyl)-2-fluoro-4-[5-(trifluoromethyl)-1,2,4-oxadiazol-3-yl]benzamide] | ≥ 80% | ≥ 80% | ≥ 80% | 113.5 to 114.7 °C | ≥ 80% | ≥ 80% |
| C=CCNC(=O)c1ccc(-c2noc(C(F)(F)F)n2)cc1 [Compound 3a.1, N-allyl-4-[5-(trifluoromethyl)-1,2,4-oxadiazol-3-yl]benzamide] | ≥ 80% | ≥ 80% | ≥ 80% | 135 to 136 °C and 135 to 146 °C | ≥ 80% | ≥ 80% |
| COCCNC(=O)c1ccc(-c2noc(C(F)(F)F)n2)cc1F [Compound 3b.6, 2-fluoro-N-(2-methoxyethyl)-4-[5-(trifluoromethyl)-1,2,4-oxadiazol-3-yl]benzamide] | ≥ 80% | ≥ 80% | ≥ 80% | 87.6 to 89 °C | ≥ 80% | ≥ 80% |
| O=C(NCC1CCOC1)c1ccc(-c2noc(C(F)(F)F)n2)cc1F (stereo not drawn) [Compound 1b.16, 2-fluoro-N-(tetrahydrofuran-3-ylmethyl)4[5(trifluoromethyl)-1,2,4-oxadiazol-3-yl]benzamide] | ≥ 80% | ≥ 80% | ≥ 80% | 124.2 to 126.2 °C | ≥ 80% | ≥ 80% |
| C#CCNC(=O)c1ccc(-c2noc(C(F)(F)F)n2)cc1 [Compound 3a.2, N-prop-2-ynyl-4-[5-(trifluoromethyl)-1,2,4-oxadiazol-3-yl]benzamide] | ≥ 80% | ≥ 80% | ≥ 80% | 168.5 to 170 °C | ≥ 80% | ≥ 80% |
| Cc1nc(CN(C)C(=O)c2ccc(-c3noc(C(F)(F)F)n3)cc2F)cs1 [Compound 5b.15, 2-fluoro-N-methyl-N-[(2-methylthiazol-4-yl)methyl]-4-[5-(trifluoromethyl)-1,2,4-oxadiazol-3-yl]benzamide] | ≥ 80% | ≥ 80% | ≥ 80% | 96.3 to 98.4 °C | ≥ 80% | ≥ 80% |
